Data on 14 compounds can be found in patent publication US20230286906A1, “CANNABINOID DERIVATIVES” (CANOPY GROWTH CORPORATION, priority 2019, published 2023).

Broadly, the IC50 is the concentration that gives 50% inhibition.

Structures are written as SMILES. Like-named read-outs stand apart in the source and are kept apart here.

One experiment deals with T1, human CB1 receptor (Homo sapiens, UniProt P21554).
T1 construct: host or cells: CHO-K1 (Chinese hamster ovary) cells, stably transfected; membranes prepared in house
T1 sequence (P21554 whole entry): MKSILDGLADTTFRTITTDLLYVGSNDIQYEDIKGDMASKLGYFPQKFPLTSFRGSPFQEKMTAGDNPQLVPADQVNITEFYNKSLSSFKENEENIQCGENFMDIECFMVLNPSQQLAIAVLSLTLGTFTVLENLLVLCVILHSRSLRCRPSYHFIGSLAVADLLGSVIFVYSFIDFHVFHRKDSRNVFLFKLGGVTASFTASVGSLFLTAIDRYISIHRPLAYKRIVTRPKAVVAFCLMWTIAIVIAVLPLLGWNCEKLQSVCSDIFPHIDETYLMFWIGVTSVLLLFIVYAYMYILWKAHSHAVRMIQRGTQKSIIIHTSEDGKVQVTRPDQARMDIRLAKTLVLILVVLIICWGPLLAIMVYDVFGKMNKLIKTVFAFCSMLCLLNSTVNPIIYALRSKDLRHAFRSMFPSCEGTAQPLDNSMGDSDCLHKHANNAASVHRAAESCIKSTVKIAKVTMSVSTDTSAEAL
Description: CB1 radioligand ([3H]CP 55,940) competitive binding assay.

The target in a further experiment is T2, human CB2 receptor (Homo sapiens, UniProt P34972).
T2 construct: host or cells: CHO-K1 (Chinese hamster ovary) cells, stably transfected; membranes prepared in house
T2 sequence (P34972 whole entry): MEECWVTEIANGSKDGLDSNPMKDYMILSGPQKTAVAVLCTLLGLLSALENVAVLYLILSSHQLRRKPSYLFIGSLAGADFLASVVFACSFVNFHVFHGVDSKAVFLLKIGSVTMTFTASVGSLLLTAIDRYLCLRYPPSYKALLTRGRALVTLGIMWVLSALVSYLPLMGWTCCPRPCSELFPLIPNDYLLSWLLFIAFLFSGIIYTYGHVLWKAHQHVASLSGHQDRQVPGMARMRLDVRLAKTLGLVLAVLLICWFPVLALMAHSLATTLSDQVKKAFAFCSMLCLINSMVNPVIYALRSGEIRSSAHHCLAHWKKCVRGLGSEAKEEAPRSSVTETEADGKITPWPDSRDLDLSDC
Description: CB2 radioligand ([3H]CP 55,940) competitive binding assay. The note with it: for Selectivity CB2: fold difference in selectivity between CB1 and CB2 binding, shown in the column of the receptor with higher affinity. The protocol: Compounds of the present disclosure were tested for CB1 receptor binding affinity and for CB2 receptor binding affinity. As used herein, “binding affinity” is represented by the IC50 value, which was experimentally determined as described herein. The lower the IC50 value the higher the binding affinity. A compound of the present disclosure may be said to have “binding selectivity” if it has a higher binding affinity for one receptor compared to the other.
The membranes were prepared from CHO-K1 (Chinese hamster ovary) cells stably transfected with the human CB2 receptor (Cat. #ES-111-C; Perkin Elmer, Boston, Mass.). The cells were grown adherently and maintained in Ham's F12 medium containing 10% fetal bovine serum (FBS), penicillin, streptomycin and geneticin (G418) at 37° C. in a humid atmosphere of 5% CO2 following the manufacturer's instructions.
For membrane preparation the cells were washed with PBS and scraped off the plates in cold homogenization buffer (25 mM HEPES (pH 7.4), 2 mM EDTA) containing protease inhibitor cocktail (Sigma Cat. #P8340). The cell suspension was homogenized with a Pro-PK-01200D Polytron Homogenizer (Pro Scientific) and then centrifuged for 30 min at 120,000×g. The supernatant was discarded and the pellet was re-suspended in the homogenization buffer and stored at −80° C. until the time of use.
In this experiment, 3H radiolabeled CP 55,940, i.e. [3H]CP 55,940 (Perkin Elmer, Boston, Mass.), was used as a radioligand for the CB2 receptor to determine the binding affinity of compounds for the CB2 receptor (Scheme 4; above).
The competition binding experiments (single dose and dose-response) were performed by incubating 0.6 nM of [3H]CP55,940 (specific activity 101 Ci/mmol, Perkin Elmer) and different concentrations of compounds disclosed herein with membranes prepared as above from CHO-K1 cells expressing human CB2 receptor (1 μg of protein/well), 50 mM Tris-HCl (pH 7.4), 5 mM MgCl2, 1 mM CaCl2, and 2 mg/mL BSA.
For the single dose experiments, the compound stocks (usually 10 mM in DMSO) were diluted to working stocks in the binding buffer to give the final compound concentrations of 10 μM and 1 μM. For the dose-response experiments the test compounds were sequentially diluted to provide the desired concentration range for the IC50 determination. In each case the compounds were pre-incubated with the membrane for 20 min, before adding the radioligand.
After incubation with the radioligand for 60 min at 37° C., the incubation was terminated by rapid filtration of assay mixture through MultiScreen®HTS^+ 96-well filter plates (Millipore, Cat. #MSFCNXB), pre-soaked for 60 min with 50 mM Tris-HCl (pH 7.4) containing 0.33% polyethylenimine (PEI). The nonspecific binding (NSB) was determined in the presence of 10 μM unlabelled CP55,940. After drying the filter plate at 50° C. for at least 60 min, the filter-bound radioactivity was determined by scintillation spectrometry using the 1450 MicroBeta Plate Counter (Perkin Elmer, Boston, Mass.). From the dose-response experiments, the IC50 values were determined (see Table 1, CB2 IC50).

The mark [1] stands for this setting: displacement of 0.8 nM [3H]CP 55,940, CHO-K1 membranes expressing human CB1, read-out: CB1 IC50.
Setting [2] is: displacement of 0.6 nM [3H]CP55,940, CHO-K1 membranes expressing human CB2, read-out: CB2 IC50.

As to `CCCCCc1cc(O)c(C/C=C(\C)CCC=C(C)C)c(O)c1C(=O)NC` [Compound 1, 3-(3,7-dimethylocta-2,6-dien-1-yl)-2,4-dihydroxy-N-methyl-6-pentylbenzamide], the figures for the IC50 at human CB1 receptor (setting [1]) and at human CB2 receptor (setting [2]) were over 5 µM and 1000 to 4990 nM, respectively. In addition, the “Selectivity CB2” value on human CB2 receptor is recorded as 4.06.
The corresponding values for `CCCCCc1cc(O)c(C/C=C(\C)CCC=C(C)C)c(O)c1C(=O)NC1CC1` [Compound 6, N-cyclopropyl-3-(3,7-dimethylocta-2,6-dien-1-yl)-2,4-dihydroxy-6-pentylbenzamide] are 1 to 4.99 µM, 1000 to 4990 nM and 3.41.
The like results for `CCCCCc1cc(O)c(C/C=C(\C)CCC=C(C)C)c(O)c1C(=O)Nc1ccccc1` [Compound 10, 3-(3,7-dimethylocta-2,6-dien-1-yl)-2,4-dihydroxy-6-pentyl-N-phenylbenzamide] were, in that order, over 5 µM, 1000 to 4990 nM and 4.86.
As for `CCCCCc1cc(O)c(C/C=C(\C)CCC=C(C)C)c(O)c1C(=O)Nc1ccc(OC)cc1` [Compound 11, 3-(3,7-dimethylocta-2,6-dien-1-yl)-2,4-dihydroxy-N-(4-methoxyphenyl)-6-pentylbenzamide], the IC50 on human CB1 receptor (setting [1]) lay in the range of 1 to 4.99 µM; on human CB2 receptor (setting [2]), 500 to 990 nM. Further, on human CB2 receptor, the “Selectivity CB2” value was 2.35.
The like results for `CCCCCc1cc(O)c(C/C=C(\C)CCC=C(C)C)c(O)c1C(=O)NCc1ccccc1` [Compound 14, N-benzyl-3-(3,7-dimethylocta-2,6-dien-1-yl)-2,4-dihydroxy-6-pentylbenzamide] were, in that order, over 5 µM, 1000 to 4990 nM and 8.57.
The like results for `CCCCCc1cc(O)c(C/C=C(\C)CCC=C(C)C)c(O)c1C(=O)N1CCOCC1` [Compound 39] were, in that order, over 5 µM, under 500 nM and 24.32.
The like results for `CCCCCc1cc(O)c(C/C=C(\C)CCC=C(C)C)c(O)c1C(=O)N1CCCC1` [Compound 41, (3-(3,7-dimethylocta-2,6-dien-1-yl)-2,4-dihydroxy-6-pentylphenyl)(pyrrolidin-1-yl)methanone] were, in that order, over 5 µM, 1000 to 4990 nM and 11.54.
For `CCCCCc1cc(O)c(C/C=C(\C)CCC=C(C)C)c(O)c1C(=O)N(CC)CC` [Compound 50, 3-(3,7-dimethylocta-2,6-dien-1-yl)-N,N-diethyl-2,4-dihydroxy-6-pentylbenzamide], the IC50 at human CB1 receptor is over 5 µM. Moreover, at human CB2 receptor, the IC50 lay within 1000 to 4990 nM and the “Selectivity CB2” value came to 4.80.
For `CCCCCc1cc(O)c(CC=C(C)CCC=C(C)C)c(O)c1CN(C)C(=O)OC` [Compound 58, methyl (3-(3,7-dimethylocta-2,6-dien-1-yl)-2,4-dihydroxy-6-pentylbenzyl)(methyl)carbamate], the IC50 at human CB1 receptor (setting [1]) is 1 to 4.99 µM; on human CB2 receptor (setting [2]) it was under 500 nM. At human CB2 receptor, the “Selectivity CB2” value was 30.00.
The corresponding values for `CCCCCc1c(CN(C)C(=O)OC)c(O)c(CC=C(C)CCC=C(C)C)c(O)c1CN(C)C(=O)OC` [Compound 59, dimethyl ((5-(3,7-dimethylocta-2,6-dien-1-yl)-4,6-dihydroxy-2-pentyl-1,3-phenylene)bis(methylene))bis(methylcarbamate)] are 0.5 to 0.99 µM, 500 to 990 nM and 1.49.
The corresponding values for `CCCCCc1cc(O)c(C/C=C(\C)CCC=C(C)C)c(O)c1C(=O)Nc1ccc(F)cc1` [Compound 60, 3-(3,7-dimethylocta-2,6-dien-1-yl)-N-(4-fluorophenyl)-2,4-dihydroxy-6-pentyl benzamide] are 1 to 4.99 µM, under 500 nM and 2.52.
As for `CCCCCc1cc(O)c(C/C=C(\C)CCC=C(C)C)c(O)c1C(=O)NCc1ccc(F)cc1` [Compound 61, 3-(3,7-dimethylocta-2,6-dien-1-yl)-N-(4-fluorobenzyl)-2,4-dihydroxy-6-pentylbenzamide], the IC50 at human CB1 receptor (setting [1]) was 0.5 to 0.99 µM; at human CB2 receptor (setting [2]) it was under 500 nM. Besides, the “Selectivity CB2” value on human CB2 receptor is 118.29.
The corresponding values for `CCCCCc1cc(O)c(C/C=C(\C)CCC=C(C)C)c(O)c1C(=O)NCc1cccnc1` [Compound 62, 3-(3,7-dimethylocta-2,6-dien-1-yl)-2,4-dihydroxy-6-pentyl-N-(pyridin-3-ylmethyl)benzamide] are 1 to 4.99 µM, 500 to 990 nM and 4.71.
The compound `CCCCCc1cc(O)c(C/C=C(\C)CCC=C(C)C)c(O)c1C(=O)Nc1cccnc1` [Compound 63, 3-(3,7-dimethylocta-2,6-dien-1-yl)-2,4-dihydroxy-6-pentyl-N-(pyridin-3-yl) benzamide] returned an IC50 at human CB1 receptor of 1 to 4.99 µM. For the same compound, at human CB2 receptor, the IC50 lay in the range of 1000 to 4990 nM and the “Selectivity CB2” value worked out at 2.20.
